Patent US20230348442A1, “GALECTIN-3 INHIBITING 2-HYDROXYCYCLOALKANE-1-CARBAMOYL DERIVATIVES” (Idorsia Pharmaceuticals Ltd, priority 2020, published 2023)

Molecular target: human Gal-3 (hGal-3) (Homo sapiens (Human), UniProt P17931)
Test: competitive binding assay: binding of biotinylated hGal-3 to microplate-adsorbed asialofetuin (ASF), spectrophotometric
Conditions: Activity on hGal-3; mean values of several measurements
Outline: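 Compounds diluted in DMSO competed with biotinylated hGal-3 or hGal-1 (300-1000 ng/mL) for binding to plate-adsorbed asialofetuin for 3 h at 4° C. Bound galectin was detected with streptavidin-peroxidase (80 ng/mL, 1 h, 4° C) and ABTS substrate; IC50 reported as mean of several measurements.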

Sequence of human Gal-3 (hGal-3) (P17931 whole entry): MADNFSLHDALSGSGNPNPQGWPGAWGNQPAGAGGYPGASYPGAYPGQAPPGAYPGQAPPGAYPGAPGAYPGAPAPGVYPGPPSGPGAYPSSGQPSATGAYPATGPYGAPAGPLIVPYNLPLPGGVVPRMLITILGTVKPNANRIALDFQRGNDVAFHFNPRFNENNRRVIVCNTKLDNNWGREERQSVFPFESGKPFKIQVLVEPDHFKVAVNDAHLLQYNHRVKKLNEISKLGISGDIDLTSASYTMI

Row | Compound | IC50
1 | CO[C@@H]1[C@@H](n2cc(-c3ccc(C)c(F)c3F)nn2)[C@@H](O)[C@@H](CO)O[C@H]1C(=O)N(c1cc(Cl)cc(C#N)c1)[C@H]1CCC[C@@H]1O [Example 1.11.4, (2R,3R,4S,5R,6R)-N-(3-chloro-5-cyanophenyl)-4-(4-(2,3-difluoro-4-methylphenyl)-1H-1,2,3-triazol-1-yl)-5-hydroxy-N-((1S,2S)-2-hydroxycyclopentyl)-6-(hydroxymethyl)-3-methoxytetrahydro-2H-pyran-2-carboxamide] | 21.9 nM
2 | CO[C@@H]1[C@@H](n2cc(-c3ccc(C)c(F)c3F)nn2)[C@@H](O)[C@@H](CO)O[C@H]1C(=O)N(c1cc(Cl)cc(C#N)c1)[C@@H]1CCC[C@H]1O [Example 1.11.4R, (2R,3R,4S,5R,6R)-N-(3-chloro-5-cyanophenyl)-4-(4-(2,3-difluoro-4-methylphenyl)-1H-1,2,3-triazol-1-yl)-5-hydroxy-N-((1R,2R)-2-hydroxycyclopentyl)-6-(hydroxymethyl)-3-methoxytetrahydro-2H-pyran-2-carboxamide] | 53.9 nM
3 | CO[C@@H]1[C@@H](n2cc(-c3ccc(Br)c(F)c3F)nn2)[C@@H](O)[C@@H](CO)O[C@H]1C(=O)N(c1cc(Cl)cc(C#N)c1)[C@H]1CCC[C@@H]1O [Example 1.12.4, (2R,3R,4S,5R,6R)-4-(4-(4-bromo-2,3-difluorophenyl)-1H-1,2,3-triazol-1-yl)-N-(3-chloro-5-cyanophenyl)-5-hydroxy-N-((1S,2S)-2-hydroxycyclopentyl)-6-(hydroxymethyl)-3-methoxytetrahydro-2H-pyran-2-carboxamide] | 21.7 nM
4 | CO[C@@H]1[C@@H](n2cc(-c3ccc(Br)c(F)c3F)nn2)[C@@H](O)[C@@H](CO)O[C@H]1C(=O)N(c1cc(Cl)cc(C#N)c1)[C@@H]1CCC[C@H]1O [Example 1.12.4R, (2R,3R,4S,5R,6R)-4-(4-(4-bromo-2,3-difluorophenyl)-1H-1,2,3-triazol-1-yl)-N-(3-chloro-5-cyanophenyl)-5-hydroxy-N-((1R,2R)-2-hydroxycyclopentyl)-6-(hydroxymethyl)-3-methoxytetrahydro-2H-pyran-2-carboxamide] | 90.7 nM
5 | CO[C@@H]1[C@@H](n2cc(-c3ccc(Br)c(F)c3F)nn2)[C@@H](O)[C@@H](CO)O[C@H]1C(=O)N(c1cc(F)cc(C#N)c1)[C@@H]1CCC[C@H]1O [Example 1.12.7R, (2R,3R,4S,5R,6R)-4-(4-(4-bromo-2,3-difluorophenyl)-1H-1,2,3-triazol-1-yl)-N-(3-cyano-5-fluorophenyl)-5-hydroxy-N-((1R,2R)-2-hydroxycyclopentyl)-6-(hydroxymethyl)-3-methoxytetrahydro-2H-pyran-2-carboxamide] | 94.6 nM
6 | CO[C@@H]1[C@@H](n2cc(-c3ccc(C)c(F)c3)nn2)[C@@H](O)[C@@H](CO)O[C@H]1C(=O)N(c1cc(C)cc(C#N)c1)[C@H]1CCC[C@@H]1O [Example 1.13.8, (2R,3R,4S,5R,6R)-N-(3-cyano-5-methylphenyl)-4-(4-(3-fluoro-4-methylphenyl)-1H-1,2,3-triazol-1-yl)-5-hydroxy-N-((1S,2S)-2-hydroxycyclopentyl)-6-(hydroxymethyl)-3-methoxytetrahydro-2H-pyran-2-carboxamide] | 33.2 nM
7 | CO[C@@H]1[C@@H](n2cc(-c3ccc(C)c(F)c3)nn2)[C@@H](O)[C@@H](CO)O[C@H]1C(=O)N(c1cc(C)cc(C#N)c1)[C@@H]1CCC[C@H]1O [Example 1.13.8R, (2R,3R,4S,5R,6R)-N-(3-cyano-5-methylphenyl)-4-(4-(3-fluoro-4-methylphenyl)-1H-1,2,3-triazol-1-yl)-5-hydroxy-N-((1R,2R)-2-hydroxycyclopentyl)-6-(hydroxymethyl)-3-methoxytetrahydro-2H-pyran-2-carboxamide] | 206 nM

Continued by falling IC50, values first:

Row | IC50 | Compound
8 | 167 nM | CO[C@@H]1[C@@H](n2cc(-c3ccc(C)c(F)c3)nn2)[C@@H](O)[C@@H](CO)O[C@H]1C(=O)N(c1cc(Br)cc(C#N)c1)[C@@H]1CCC[C@H]1O [Example 1.13.5R, (2R,3R,4S,5R,6R)-N-(3-bromo-5-cyanophenyl)-4-(4-(3-fluoro-4-methylphenyl)-1H-1,2,3-triazol-1-yl)-5-hydroxy-N-((1R,2R)-2-hydroxycyclopentyl)-6-(hydroxymethyl)-3-methoxytetrahydro-2H-pyran-2-carboxamide]
9 | 73.1 nM | CO[C@@H]1[C@@H](n2cc(-c3ccc(C)c(F)c3F)nn2)[C@@H](O)[C@@H](CO)O[C@H]1C(=O)N(c1cc(Br)cc(C#N)c1)[C@@H]1CCC[C@H]1O [Example 1.11.5R, (2R,3R,4S,5R,6R)-N-(3-bromo-5-cyanophenyl)-4-(4-(2,3-difluoro-4-methylphenyl)-1H-1,2,3-triazol-1-yl)-5-hydroxy-N-((1R,2R)-2-hydroxycyclopentyl)-6-(hydroxymethyl)-3-methoxytetrahydro-2H-pyran-2-carboxamide]
10 | 23.7 nM | CO[C@@H]1[C@@H](n2cc(-c3ccc(Br)c(F)c3F)nn2)[C@@H](O)[C@@H](CO)O[C@H]1C(=O)N(c1cc(Cl)cc(Cl)c1)[C@H]1CCC[C@@H]1O [Example 1.12.2, (2R,3R,4S,5R,6R)-4-(4-(4-bromo-2,3-difluorophenyl)-1H-1,2,3-triazol-1-yl)-N-(3,5-dichlorophenyl)-5-hydroxy-N-((1S,2S)-2-hydroxycyclopentyl)-6-(hydroxymethyl)-3-methoxytetrahydro-2H-pyran-2-carboxamide]
11 | 21.2 nM | CO[C@@H]1[C@@H](n2cc(-c3ccc(Br)c(F)c3F)nn2)[C@@H](O)[C@@H](CO)O[C@H]1C(=O)N(c1cc(F)cc(C#N)c1)[C@H]1CCC[C@@H]1O [Example 1.12.7, (2R,3R,4S,5R,6R)-4-(4-(4-bromo-2,3-difluorophenyl)-1H-1,2,3-triazol-1-yl)-N-(3-cyano-5-fluorophenyl)-5-hydroxy-N-((1S,2S)-2-hydroxycyclopentyl)-6-(hydroxymethyl)-3-methoxytetrahydro-2H-pyran-2-carboxamide]
12 | 17.1 nM | CO[C@@H]1[C@@H](n2cc(-c3ccc(C)c(F)c3)nn2)[C@@H](O)[C@@H](CO)O[C@H]1C(=O)N(c1cc(Br)cc(C#N)c1)[C@H]1CCC[C@@H]1O [Example 1.13.5, (2R,3R,4S,5R,6R)—N-(3-bromo-5-cyanophenyl)-4-(4-(3-fluoro-4-methylphenyl)-1H-1,2,3-triazol-1-yl)-5-hydroxy-N-((1S,2S)-2-hydroxycyclopentyl)-6-(hydroxymethyl)-3-methoxytetrahydro-2H-pyran-2-carboxamide]
13 | 14.9 nM | CO[C@@H]1[C@@H](n2cc(-c3ccc(C)c(F)c3F)nn2)[C@@H](O)[C@@H](CO)O[C@H]1C(=O)N(c1cc(Br)cc(C#N)c1)[C@H]1CCC[C@@H]1O [Example 1.11.5, (2R,3R,4S,5R,6R)-N-(3-bromo-5-cyanophenyl)-4-(4-(2,3-difluoro-4-methylphenyl)-1H-1,2,3-triazol-1-yl)-5-hydroxy-N-((1S,2S)-2-hydroxycyclopentyl)-6-(hydroxymethyl)-3-methoxytetrahydro-2H-pyran-2-carboxamide]
14 | 13.6 nM | CO[C@@H]1[C@@H](n2cc(-c3ccc(Br)c(F)c3F)nn2)[C@@H](O)[C@@H](CO)O[C@H]1C(=O)N(c1cc(Br)cc(C#N)c1)[C@H]1CCC[C@@H]1O [Example 1.12.5, (2R,3R,4S,5R,6R)-4-(4-(4-bromo-2,3-difluorophenyl)-1H-1,2,3-triazol-1-yl)-N-(3-bromo-5-cyanophenyl)-5-hydroxy-N-((1S,2S)-2-hydroxycyclopentyl)-6-(hydroxymethyl)-3-methoxytetrahydro-2H-pyran-2-carboxamide]
